Ten molecules from ChEMBL document CHEMBL1131542, “A potent dipeptide inhibitor of dipeptidyl peptidase IV” (Bioorg Med Chem Lett, 1998) can be followed below.

Structures are written as SMILES. Square brackets hold non-standard residues; d marks the D form. Peptide text beside a SMILES is read from it. Tic = O=C(O)[C@@H]1Cc2ccccc2CN1

The target of the test is Dipeptidyl peptidase 4 (Homo sapiens, UniProt P27487). Nature of the test: Percent inhibition against Dipeptidyl peptidase IV (DPP IV) at a concentration of 1 uM.
Dipeptidyl peptidase 4, sequence (P27487 whole entry, looked up): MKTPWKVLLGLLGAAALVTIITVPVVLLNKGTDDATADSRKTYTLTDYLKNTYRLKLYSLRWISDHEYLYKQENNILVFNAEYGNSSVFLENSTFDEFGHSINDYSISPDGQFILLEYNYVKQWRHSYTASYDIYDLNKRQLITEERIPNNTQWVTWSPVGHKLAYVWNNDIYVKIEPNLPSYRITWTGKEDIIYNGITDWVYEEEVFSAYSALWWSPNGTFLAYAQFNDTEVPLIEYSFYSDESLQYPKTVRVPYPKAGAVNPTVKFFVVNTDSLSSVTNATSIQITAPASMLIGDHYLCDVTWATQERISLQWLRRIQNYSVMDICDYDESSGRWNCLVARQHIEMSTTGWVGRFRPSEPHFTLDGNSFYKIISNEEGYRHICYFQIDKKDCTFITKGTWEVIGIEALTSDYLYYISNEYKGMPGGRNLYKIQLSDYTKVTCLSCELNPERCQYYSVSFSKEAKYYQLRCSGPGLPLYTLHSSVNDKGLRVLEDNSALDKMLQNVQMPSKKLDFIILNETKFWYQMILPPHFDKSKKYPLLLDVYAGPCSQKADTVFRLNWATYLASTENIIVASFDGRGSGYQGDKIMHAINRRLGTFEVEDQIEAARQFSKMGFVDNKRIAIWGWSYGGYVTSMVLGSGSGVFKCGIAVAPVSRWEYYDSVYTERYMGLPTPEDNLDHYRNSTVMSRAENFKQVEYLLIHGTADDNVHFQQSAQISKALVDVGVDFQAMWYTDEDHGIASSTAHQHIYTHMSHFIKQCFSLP
`CC[C@H](C)[C@H](N)C(=O)N1Cc2ccccc2C[C@H]1C(=O)N[C@@H](C)C(=O)N[C@@H](CCCN=C(N)N)C(=O)N[C@@H](CC(N)=O)C(=O)N[C@@H](CC(=O)O)C(=O)N[C@@H](CCC(N)=O)C(=O)N[C@@H](CCC(=O)O)C(=O)NCC(=O)N[C@@H](Cc1c[nH]cn1)C(=O)N[C@H](C(=O)N[C@@H](CC(C)C)C(=O)N[C@@H](CCCCN)C(=O)N[C@@H](CCSC)C(=O)N[C@@H](Cc1ccccc1)C(=O)N1CCC[C@H]1C(=O)N[C@@H](CO)C(=O)N[C@H](C(=O)N[C@@H](Cc1c[nH]c2ccccc12)C(=O)N[C@@H](Cc1ccc(O)cc1)C(=O)N[C@H](C(=O)O)C(C)C)[C@@H](C)O)[C@@H](C)CC` (H-I[Tic]ARNDQEGHILKMFPSTWYV-OH) registered an inhibition of 6%. Take `CC[C@H](C)[C@H](NC(=O)[C@H](Cc1c[nH]cn1)NC(=O)CNC(=O)[C@H](CCC(=O)O)NC(=O)[C@H](CCC(N)=O)NC(=O)[C@H](CC(=O)O)NC(=O)[C@H](CC(N)=O)NC(=O)[C@H](CCCN=C(N)N)NC(=O)[C@H](C)NC(=O)[C@@H]1Cc2ccccc2CN1C(=O)[C@@H](N)CCCCN)C(=O)N[C@@H](CC(C)C)C(=O)N[C@@H](CCCCN)C(=O)N[C@@H](CCSC)C(=O)N[C@@H](Cc1ccccc1)C(=O)N1CCC[C@H]1C(=O)N[C@@H](CO)C(=O)N[C@H](C(=O)N[C@@H](Cc1c[nH]c2ccccc12)C(=O)N[C@@H](Cc1ccc(O)cc1)C(=O)N[C@H](C(=O)O)C(C)C)[C@@H](C)O` (H-K[Tic]ARNDQEGHILKMFPSTWYV-OH): the inhibition stood at 7%. Next, `CC[C@H](C)[C@H](NC(=O)[C@H](Cc1c[nH]cn1)NC(=O)CNC(=O)[C@H](CCC(=O)O)NC(=O)[C@H](CCC(N)=O)NC(=O)[C@H](CC(=O)O)NC(=O)[C@H](CC(N)=O)NC(=O)[C@H](CCCN=C(N)N)NC(=O)[C@H](C)NC(=O)[C@@H]1Cc2ccccc2CN1C(=O)[C@@H](N)CC(C)C)C(=O)N[C@@H](CC(C)C)C(=O)N[C@@H](CCCCN)C(=O)N[C@@H](CCSC)C(=O)N[C@@H](Cc1ccccc1)C(=O)N1CCC[C@H]1C(=O)N[C@@H](CO)C(=O)N[C@H](C(=O)N[C@@H](Cc1c[nH]c2ccccc12)C(=O)N[C@@H](Cc1ccc(O)cc1)C(=O)N[C@H](C(=O)O)C(C)C)[C@@H](C)O` (H-L[Tic]ARNDQEGHILKMFPSTWYV-OH): 7%; `CC[C@H](C)[C@H](NC(=O)[C@H](Cc1c[nH]cn1)NC(=O)CNC(=O)[C@H](CCC(=O)O)NC(=O)[C@H](CCC(N)=O)NC(=O)[C@H](CC(=O)O)NC(=O)[C@H](CC(N)=O)NC(=O)[C@H](CCCN=C(N)N)NC(=O)[C@H](C)NC(=O)[C@@H]1Cc2ccccc2CN1C(=O)[C@@H](N)CCSC)C(=O)N[C@@H](CC(C)C)C(=O)N[C@@H](CCCCN)C(=O)N[C@@H](CCSC)C(=O)N[C@@H](Cc1ccccc1)C(=O)N1CCC[C@H]1C(=O)N[C@@H](CO)C(=O)N[C@H](C(=O)N[C@@H](Cc1c[nH]c2ccccc12)C(=O)N[C@@H](Cc1ccc(O)cc1)C(=O)N[C@H](C(=O)O)C(C)C)[C@@H](C)O` (H-M[Tic]ARNDQEGHILKMFPSTWYV-OH): 6%; `CC[C@H](C)[C@H](NC(=O)[C@H](Cc1c[nH]cn1)NC(=O)CNC(=O)[C@H](CCC(=O)O)NC(=O)[C@H](CCC(N)=O)NC(=O)[C@H](CC(=O)O)NC(=O)[C@H](CC(N)=O)NC(=O)[C@H](CCCN=C(N)N)NC(=O)[C@H](C)NC(=O)[C@@H]1Cc2ccccc2CN1C(=O)[C@@H](N)CC(N)=O)C(=O)N[C@@H](CC(C)C)C(=O)N[C@@H](CCCCN)C(=O)N[C@@H](CCSC)C(=O)N[C@@H](Cc1ccccc1)C(=O)N1CCC[C@H]1C(=O)N[C@@H](CO)C(=O)N[C@H](C(=O)N[C@@H](Cc1c[nH]c2ccccc12)C(=O)N[C@@H](Cc1ccc(O)cc1)C(=O)N[C@H](C(=O)O)C(C)C)[C@@H](C)O` (H-N[Tic]ARNDQEGHILKMFPSTWYV-OH): 9%.

As for `CC[C@H](C)[C@H](NC(=O)[C@H](Cc1c[nH]cn1)NC(=O)CNC(=O)[C@H](CCC(=O)O)NC(=O)[C@H](CCC(N)=O)NC(=O)[C@H](CC(=O)O)NC(=O)[C@H](CC(N)=O)NC(=O)[C@H](CCCN=C(N)N)NC(=O)[C@H](C)NC(=O)[C@@H]1Cc2ccccc2CN1C(=O)[C@@H](N)CCC(N)=O)C(=O)N[C@@H](CC(C)C)C(=O)N[C@@H](CCCCN)C(=O)N[C@@H](CCSC)C(=O)N[C@@H](Cc1ccccc1)C(=O)N1CCC[C@H]1C(=O)N[C@@H](CO)C(=O)N[C@H](C(=O)N[C@@H](Cc1c[nH]c2ccccc12)C(=O)N[C@@H](Cc1ccc(O)cc1)C(=O)N[C@H](C(=O)O)C(C)C)[C@@H](C)O` (H-Q[Tic]ARNDQEGHILKMFPSTWYV-OH), the inhibition came out at 4%. `CC[C@H](C)[C@H](NC(=O)[C@H](Cc1c[nH]cn1)NC(=O)CNC(=O)[C@H](CCC(=O)O)NC(=O)[C@H](CCC(N)=O)NC(=O)[C@H](CC(=O)O)NC(=O)[C@H](CC(N)=O)NC(=O)[C@H](CCCN=C(N)N)NC(=O)[C@H](C)NC(=O)[C@@H]1Cc2ccccc2CN1C(=O)[C@@H](N)CCCN=C(N)N)C(=O)N[C@@H](CC(C)C)C(=O)N[C@@H](CCCCN)C(=O)N[C@@H](CCSC)C(=O)N[C@@H](Cc1ccccc1)C(=O)N1CCC[C@H]1C(=O)N[C@@H](CO)C(=O)N[C@H](C(=O)N[C@@H](Cc1c[nH]c2ccccc12)C(=O)N[C@@H](Cc1ccc(O)cc1)C(=O)N[C@H](C(=O)O)C(C)C)[C@@H](C)O` (H-R[Tic]ARNDQEGHILKMFPSTWYV-OH) came in with an inhibition of 10%.

With `CC[C@H](C)[C@H](NC(=O)[C@H](Cc1c[nH]cn1)NC(=O)CNC(=O)[C@H](CCC(=O)O)NC(=O)[C@H](CCC(N)=O)NC(=O)[C@H](CC(=O)O)NC(=O)[C@H](CC(N)=O)NC(=O)[C@H](CCCN=C(N)N)NC(=O)[C@H](C)NC(=O)[C@@H]1Cc2ccccc2CN1C(=O)[C@@H](N)CO)C(=O)N[C@@H](CC(C)C)C(=O)N[C@@H](CCCCN)C(=O)N[C@@H](CCSC)C(=O)N[C@@H](Cc1ccccc1)C(=O)N1CCC[C@H]1C(=O)N[C@@H](CO)C(=O)N[C@H](C(=O)N[C@@H](Cc1c[nH]c2ccccc12)C(=O)N[C@@H](Cc1ccc(O)cc1)C(=O)N[C@H](C(=O)O)C(C)C)[C@@H](C)O` (H-S[Tic]ARNDQEGHILKMFPSTWYV-OH), the inhibition was determined as 10%. In turn, `CC[C@H](C)[C@H](NC(=O)[C@H](Cc1c[nH]cn1)NC(=O)CNC(=O)[C@H](CCC(=O)O)NC(=O)[C@H](CCC(N)=O)NC(=O)[C@H](CC(=O)O)NC(=O)[C@H](CC(N)=O)NC(=O)[C@H](CCCN=C(N)N)NC(=O)[C@H](C)NC(=O)[C@@H]1Cc2ccccc2CN1C(=O)[C@@H](N)[C@@H](C)O)C(=O)N[C@@H](CC(C)C)C(=O)N[C@@H](CCCCN)C(=O)N[C@@H](CCSC)C(=O)N[C@@H](Cc1ccccc1)C(=O)N1CCC[C@H]1C(=O)N[C@@H](CO)C(=O)N[C@H](C(=O)N[C@@H](Cc1c[nH]c2ccccc12)C(=O)N[C@@H](Cc1ccc(O)cc1)C(=O)N[C@H](C(=O)O)C(C)C)[C@@H](C)O` (H-T[Tic]ARNDQEGHILKMFPSTWYV-OH) had an inhibition of 17%. Next, `CC[C@H](C)[C@H](NC(=O)[C@H](Cc1c[nH]cn1)NC(=O)CNC(=O)[C@H](CCC(=O)O)NC(=O)[C@H](CCC(N)=O)NC(=O)[C@H](CC(=O)O)NC(=O)[C@H](CC(N)=O)NC(=O)[C@H](CCCN=C(N)N)NC(=O)[C@H](C)NC(=O)[C@@H]1Cc2ccccc2CN1C(=O)[C@@H](N)C(C)C)C(=O)N[C@@H](CC(C)C)C(=O)N[C@@H](CCCCN)C(=O)N[C@@H](CCSC)C(=O)N[C@@H](Cc1ccccc1)C(=O)N1CCC[C@H]1C(=O)N[C@@H](CO)C(=O)N[C@H](C(=O)N[C@@H](Cc1c[nH]c2ccccc12)C(=O)N[C@@H](Cc1ccc(O)cc1)C(=O)N[C@H](C(=O)O)C(C)C)[C@@H](C)O` (H-V[Tic]ARNDQEGHILKMFPSTWYV-OH): 3%.
